Our source for the IC50 values is patent US20040044000A1, “Isoquinoline derivatives as matrix metalloproteinase inhibitors” (priority 2002, published 2004).

Read-outs that look alike come from different tables or passages of the source.

The target in this experiment is T1, MMP-13 catalytic domain (MMP-13CD) (Homo sapiens, UniProt P45452).
T1 construct: use the catalytic domain of the MMP-13 enzyme, namely matrix metalloproteinase-13 catalytic domain (“MMP-13CD”), rather than the corresponding full-length enzyme
In words: Inhibition of MMP-13 catalytic domain (thiopeptolide substrate hydrolysis). The experiment is classed as biochemical. From the text:
The assays measure the amount by which a test compound reduces the hydrolysis of a thiopeptolide substrate catalyzed by a matrix metalloproteinase enzyme. Such assays are described in detail by Ye et al., in Biochemistry, 1992;31(45):11231-11235, which is incorporated herein by reference. One such assay is described below in Biological Method 1.
Some of the particular methods described below use the catalytic domain of the MMP-13 enzyme, namely matrix metalloproteinase-13 catalytic domain (“MMP-13CD”), rather than the corresponding full-length enzyme, MMP-13. It has been shown previously by Ye Qi-Zhuang, Hupe D., and Johnson L. (Current Medicinal Chemistry, 1996;3:407-418) that inhibitor activity against a catalytic domain of an MMP is predictive of the inhibitor activity against the respective full-length MMP enzyme.
Thiopeptolide substrates show virtually no decomposition or hydrolysis at or below neutral pH in the absence of a matrix metalloproteinase enzyme. A typical thiopeptolide substrate commonly utilized for assays is Ac-Pro-Leu-Gly-thioester-Leu-Leu-Gly-OEt. A 100 μL assay mixture will contain 50 mM of N-2-hydroxyethylpiperazine-N′-2-ethanesulfonic acid buffer (“HEPES,” pH 7.0), 10 mM CaCl2, 100 μM thiopeptolide substrate, and 1 mM 5,5′-dithio-bis-(2-nitro-benzoic acid) (DTNB). The thiopeptolide substrate concentration may be varied, for example from 10 to 800 μM to obtain Km and Kcat values. The change in absorbance at 405 nm is monitored on a Thermo Max microplate reader (molecular Devices, Menlo Park, Calif.) at room temperature (22° C.). The calculation of the amount of hydrolysis of the thiopeptolide substrate is based on E412=13600 M^−1 cm^−1 for the DTNB-derived product 3-carboxy-4-nitrothiophenoxide. Assays are carried out with and without matrix metalloproteinase inhibitor compounds, and the amount of hydrolysis is compared for a determination of inhibitory activity of the test compounds.
Test compounds were evaluated at various concentrations in order to determine their respective IC50 values, the micromolar concentration of compound required to cause a 50% inhibition of catalytic activity of the respective enzyme.

[1] abbreviates: Biological Table 2, compounds of Example 66, read-out: MMP-13CD IC50.
[2] abbreviates: Biological Table 1, read-out: MMP-13CD IC50.

Turning to `CCOC(=O)CCCCn1ccc2ccc(C#CCc3ccccc3)cc2c1=O` [Example 66s, 5-[1-Oxo-7-(3-phenyl-prop-1-ynyl)-1H-isoquinolin-2-yl]-pentanoic acid ethyl ester], the IC50 under setting [1] came out at 8.7 µM.
Same read-out and setting: with `N#CCCCCn1ccc2ccc(C#CCc3ccccc3)cc2c1=O` [Example 66j, 5-[1-Oxo-7-(3-phenyl-prop-1-ynyl)-1H-isoquinolin-2-yl]-pentanenitrile] the figure was 11 µM.
For `Cc1ccc(CNC(=O)c2ccc3ccn(Cc4ccc(S(C)(=O)=O)cc4)c(=O)c3c2)cc1` [Example 55, 2-(4-methane-sulfonylbenzyl)-1-oxo-1,2-dihydro-isoquinoline-7-carboxylic Acid 4-methylbenzyl-amide], the IC50 under setting [2] is more than 30 µM.
Same read-out and setting: with `COc1cccc(CNC(=O)c2ccc3ccn(CCOc4ccccc4)c(=O)c3c2)c1` [Example 45, 1-oxo-2-(2-phenoxyethyl)-1,2-dihydroisoquinoline-7-carboxylic Acid 3-methoxybenzylamide] the figure was 1.2 µM.
On the same count and under the same terms, with `CS(=O)(=O)c1ccc(Cn2ccc3ccc(C(=O)NCc4cncnc4)cc3c2=O)cc1` [Example 54, 2-(4-methane-sulfonylbenzyl)-1-oxo-1,2-dihydro-isoquinoline-7-carboxylic Acid (pyrimidin-5-ylmethyl)amide] the figure was 35 µM.
For `O=C(O)c1ccc(Cn2ccc3ccc(C#CCn4ccnn4)cc3c2=O)cc1` [4-[1-oxo-7-(3-[1,2,3]triazol-1-ylprop-1-ynyl)-1H-isoquinolin-2-ylmethyl]benzoic acid], the half-maximal inhibitory concentration (IC50) (hMMP-13CD, text b731, read-out: IC50 with hMMP-13CD) was more than 50 µM.
Take `COc1cc(CNC(=O)c2ccc3ccn(CCOc4ccccc4)c(=O)c3c2)ccn1` [Example 43, 1-oxo-2-(2-phenoxyethyl)-1,2-dihydroisoquinoline-7-carboxylic Acid (2-methoxypyridin-4-ylmethyl)amide]: under setting [2], the 50% inhibitory concentration (IC50) amounted to 3.8 µM.
As to `CCOC(=O)CCCCCn1ccc2ccc(C#CCc3ccccc3)cc2c1=O` [Example 66v, 6-[1-Oxo-7-(3-phenyl-prop-1-ynyl)-1H-isoquinolin-2-yl]-hexanoic acid ethyl ester], the IC50 under setting [1] is 8.7 µM.
Still for that read-out and setting: with `COC(=O)Cn1ccc2ccc(C#CCc3ccccc3)cc2c1=O` [Example 66q, [1-Oxo-7-(3-phenyl-prop-1-ynyl)-1H-isoquinolin-2-yl]-acetic acid methyl ester] the figure was 22 µM.
`Cc1ccc(CNC(=O)c2ccc3ccn(CCOc4ccccc4)c(=O)c3c2)cc1` [Example 47, 1-oxo-2-(2-phenoxyethyl)-1,2-dihydroisoquinoline-7-carboxylic Acid 4-methylbenzamide]: the IC50 under setting [2] was more than 10 µM.
On the same count and under the same terms, with `O=C(NCc1cccnc1)c1ccc2ccn(CCOc3ccccc3)c(=O)c2c1` [Example 42, 1-oxo-2-(2-phenoxyethyl)-1,2-dihydroisoquinoline-7-carboxylic Acid (pyridin-3-ylmethyl)amide] the figure was 55 µM.
Consider `O=c1c2cc(C#CCc3ccccc3)ccc2ccn1CC1CCCO1` (stereo not shown) [Example 66i, 7-(3-Phenyl-prop-1-ynyl)-2-(tetrahydro-furan-2-ylmethyl)-2H-isoquinolin-1-one], for which, under setting [1], the IC50 is 13 µM.
Regarding `O=C(NCc1ccco1)c1ccc2ccn(Cc3ccc(-c4nn[nH]n4)cc3)c(=O)c2c1` [Example 62, 1-oxo-2-[4-(2H-tetrazol-5-yl)benzyl]-1,2-dihydroisoquinoline-7-carboxylic Acid (furan-2-ylmethyl)amide], under setting [2], the 50% inhibitory concentration (IC50) was 12 µM.
Turning to `N#CCCCCCn1ccc2ccc(C#CCc3ccccc3)cc2c1=O` [Example 66af, 6-[1-Oxo-7-(3-phenyl-prop-1-ynyl)-1H-isoquinolin-2-yl]-hexanenitrile], under setting [1], the IC50 is 8.6 µM.
Consider `N#Cc1ccc(Cn2ccc3ccc(C(=O)NCc4cncnc4)cc3c2=O)cc1` [Example 38, 2-(4-cyanobenzyl)-1-oxo-1,2-dihydro-isoquinoline-7-carboxylic Acid (pyrimidin-5-ylmethyl)amide], for which the IC50 under setting [2] was 17 µM.
Still for that read-out and setting: with `CSc1ccc(CNC(=O)c2ccc3ccn(CCOc4ccccc4)c(=O)c3c2)cc1` [Example 48, 1-oxo-2-(2-phenoxyethyl)-1,2-dihydroisoquinoline-7-carboxylic Acid 4-methylsulfanylbenzamide] the figure was 4.2 µM; with `O=C(NCCn1cccc1)c1ccc2ccn(Cc3ccc(-c4nn[nH]n4)cc3)c(=O)c2c1` [Example 63, 1-oxo-2-[4-(2H-tetrazol-5-yl)benzyl]-1,2-dihydroisoquinoline-7-carboxylic Acid (2-pyrrol-1-yl-ethyl)amide], 49 µM.
Take `CC(=O)OCCCCn1ccc2ccc(C#CCc3ccccc3)cc2c1=O` [Example 66l, Acetic acid 4-[1-oxo-7-(3-phenyl-prop-1-ynyl)-1H-isoquinolin-2-yl]-butyl ester]: the 50% inhibitory concentration (IC50) under setting [1] is 14 µM.
Still for that read-out and setting: with `CCC(=O)Cn1ccc2ccc(C#CCc3ccccc3)cc2c1=O` [Example 66ab, 2-(2-Oxo-butyl)-7-(3-phenyl-prop-1-ynyl)-2H-isoquinolin-1-one] the figure was 12 µM; with `COc1ccc2nc(Cn3ccc4ccc(C#CCc5ccccc5)cc4c3=O)c(=O)oc2c1` [Example 66u, 7-Methoxy-3-[1-oxo-7-(3-phenyl-prop-1-ynyl)-1H-isoquinolin-2-ylmethyl]-1,4-benzoxazin-2-one], 11 µM.
The same measure, in the same setting: with `CS(=O)(=O)c1ccc(Cn2ccc3ccc(C#CCc4ccccc4)cc3c2=O)cc1` [Example 66o, 2-(4-Methanesulfonyl-benzyl)-7-(3-phenyl-prop-1-ynyl)-2H-isoquinolin-1-one] the figure was 95 µM.
Regarding `CS(=O)(=O)c1ccc(Cn2ccc3ccc(C(=O)NCc4ccncc4)cc3c2=O)cc1` [Example 49, 2-(4-methanesulfonylbenzyl)-1-oxo-1,2-dihydroisoquinoline-7-carboxylic Acid (pyridin-4-ylmethyl)amide], the IC50 under setting [2] turned out to be 3.1 µM.
As for `CCOC(=O)Cn1ccc2ccc(C#CCc3ccccc3)cc2c1=O` [Example 66x, [1-Oxo-7-(3-phenyl-prop-1-ynyl)-1H-isoquinolin-2-yl]-acetic acid ethyl ester], the half-inhibitory concentration (IC50) under setting [1] was found to be 11 µM.
Regarding `O=C(O)c1ccc(Cn2ccc3ccc(C(=O)NCc4cncnc4)cc3c2=O)cc1` [Example 28, 4-[1-oxo-7-[(pyrimidin-5-ylmethyl)carbamoyl]-1H-isoquinolin-2-ylmethyl]benzoic Acid], the 50% inhibitory concentration (IC50) under setting [2] is 1.8 µM.
As for `O=c1c2cc(C#CCc3ccccc3)ccc2ccn1CS(=O)(=O)c1ccccc1` [Example 66ad, 2-Benzenesulfonylmethyl-7-(3-phenyl-prop-1-ynyl)-2H-isoquinolin-1-one], under setting [1], the IC50 came out at 20 µM.
Same read-out and setting: with `O=c1c2cc(C#CCc3ccccc3)ccc2ccn1Cc1ccccc1` [Example 66ag, 2-Benzyl-7-(3-phenyl-prop-1-ynyl)-2H-isoquinolin-1-one] the figure was 1.9 µM.
`CC(C)(CO)Cn1ccc2ccc(C#CCc3ccccc3)cc2c1=O` [Example 66y, 2-(3-Hydroxy-2,2-dimethyl-propyl)-7-(3-phenyl-prop-1-ynyl)-2H-isoquinolin-1-one]: the IC50 under setting [1] stood at 20 µM.
Consider `CC(C)(C)C(=O)Cn1ccc2ccc(C#CCc3ccccc3)cc2c1=O` [Example 66ae, 2-(3,3-Dimethyl-2-oxo-butyl)-7-(3-phenyl-prop-1-ynyl)-2H-isoquinolin-1-one], for which the IC50 under setting [1] was found to be 19 µM.
In the case of `N#Cc1ccc(Cn2ccc3ccc(C(=O)NCc4ccncc4)cc3c2=O)cc1` [Example 33, 2-(4-cyanobenzyl)-1-oxo-1,2-dihydro-isoquinoline-7-carboxylic Acid (pyridin-4-ylmethyl)amide], the IC50 under setting [2] stood at 1.3 µM.
For `O=c1c2cc(C#CCc3ccccc3)ccc2ccn1CC1OCCO1` [Example 66n, 2-1,3-Dioxolan-2-ylmethyl-7-(3-phenyl-prop-1-ynyl)-2H-isoquinolin-1-one], the half-maximal inhibitory concentration (IC50) under setting [1] turned out to be 24 µM.
On the same count and under the same terms, with `CC1OCCCC1n1ccc2ccc(C#CCc3ccccc3)cc2c1=O` (stereo not shown) [Example 66g, 2-(2-Methyl-tetrahydro-pyran-3-yl)-7-(3-phenyl-prop-1-ynyl)-2H-isoquinolin-1-one] the figure was more than 30 µM.
